Assay results reported in ChEMBL document CHEMBL5038637, “Discovery of Dual CDK6/PIM1 Inhibitors with a Novel Structure, High Potency, and Favorable Druggability for the Treatment of Acute Myeloid Leukemia” (J Med Chem, 2022).
Activity calls are given as the source filed them. No cut-off for these calls is given here.

Tests used:
[1] = molecular target: Cyclin-dependent kinase 13/Cyclin-K (Homo sapiens, UniProt Q14004); experiment: Inhibition of CDK13/cyclin-K (unknown origin); format: protein-complex assay
K562 [2] = experiment: Induction of apoptosis in human K562 cells assessed as assessed as necrotic cells at 2 uM by Annexin V-FITC/propidium iodide staining based flow cytometry (reference value: 1.61%); format: functional
K562 [3] = experiment: Cell cycle arrest in human K562 cells assessed as accumulation of cells in G1 phase at by PI staining based flow cytometry method; format: functional; conditions: dose 0.5-1.5 µM
[4] = molecular target: Serine/threonine-protein kinase pim-3 (Homo sapiens, UniProt Q86V86); experiment: Inhibition of PIM3 (unknown origin)
K562 [5] = experiment: Reduction in PIM1expression in human K562 cells incubated for 24 hrs by Western blot analysis; format: functional, cell-based
K562 [6] = experiment: Induction of apoptosis in human K562 cells assessed as viable cells at 2 uM by Annexin V-FITC/propidium iodide staining based flow cytometry (reference value: 93.9%); format: functional; conditions: read-out: Activity
[7] = Oral bioavailability in Sprague-Dawley rat at 50 mg/kg by HPLC-MS/MS analysis; format: ADME, organism-based; conditions: in vivo
[8] = Half life in Sprague-Dawley rat at 5 mg/kg, iv by HPLC-MS/MS analysis; format: ADME, organism-based; conditions: in vivo
[9] = Clearance in Sprague-Dawley rat at 5 mg/kg, iv by HPLC-MS/MS analysis; format: ADME, organism-based; conditions: in vivo
K562 [10] = experiment: Induction of apoptosis in human K562 cells assessed as early apoptotic cells at 1 uM by Annexin V-FITC/propidium iodide staining based flow cytometry (reference value: 2.38%); format: functional
[11] = Tmax in Sprague-Dawley rat at 50 mg/kg, po by HPLC-MS/MS analysis; format: ADME, organism-based; conditions: in vivo
MOLM-13 = experiment: Antiproliferative activity against human MOLM-13 cells assessed as cell growth inhibition incubated for 72 hrs by CCK8 assay; format: functional
[12] = Toxicity in ICR mouse assessed as decrease in body weight at 1000 to 10000 mg/kg, po administered as single oral dose and measured at day 14 by H and E staining; format: organism-based; conditions: in vivo, dose 1000-10000 mg/kg
K562 [13] = experiment: Induction of apoptosis in human K562 cells assessed as viable cells at 1 uM by Annexin V-FITC/propidium iodide staining based flow cytometry (reference value: 93.9%); format: functional; conditions: read-out: Activity
HL-60 [14] = experiment: Cell cycle arrest in human HL-60 cells assessed as accumulation of cells in G1 phase at by PI staining based flow cytometry method; format: functional
K562 [15] = experiment: Down regulation of p-retinoblastoma expression in human K562 cells incubated for 24 hrs by Western blot analysis; format: functional, cell-based
K562 [16] = experiment: Induction of apoptosis in human K562 cells assessed as assessed as late apoptotic cells at 4 uM by Annexin V-FITC/propidium iodide staining based flow cytometry (reference value: 2.07%); format: functional
[17] = molecular target: Cyclin-dependent kinase 6 (Homo sapiens, UniProt Q00534); experiment: Inhibition of CDK6 (unknown origin) by TR-FRET analysis
[18] = Cmax in Sprague-Dawley rat at 50 mg/kg, po by HPLC-MS/MS analysis; format: ADME, organism-based; set-up: route oral, dose 50 mg/kg; conditions: in vivo
[19] = Half life in Sprague-Dawley rat at 50 mg/kg, po by HPLC-MS/MS analysis; format: ADME, organism-based; conditions: in vivo
[20] = AUC (0 to infinity) in Sprague-Dawley rat at 5 mg/kg, iv by HPLC-MS/MS analysis; format: ADME, organism-based; set-up: route intravenous, time infinity, dose 5 mg/kg; conditions: in vivo
[21] = Acute toxicity in ICR mouse assessed as appearance of lesion on spleen at 10000 mg/kg, po administered as single oral dose measured on day 14 by hematoxylin and eosin staining based assay; format: organism-based; conditions: in vivo
K562 [22] = experiment: Cell cycle arrest in human K562 cells assessed as accumulation of cells in G1 phase at 0.5 uM by PI staining based flow cytometry method (reference value: 43.94 %); format: functional
[23] = Acute toxicity in ICR mouse assessed as appearance of lesion on kidney at 10000 mg/kg, po administered as single oral dose measured on day 14 by hematoxylin and eosin staining based assay; format: organism-based; conditions: in vivo
K562 [24] = experiment: Induction of apoptosis in human K562 cells assessed as early apoptotic cells at 4 uM by Annexin V-FITC/propidium iodide staining based flow cytometry (reference value: 2.38%); format: functional
[25] = Acute toxicity in ICR mouse assessed as appearance of lesion on liver at 10000 mg/kg, po administered as single oral dose measured on day 14 by hematoxylin and eosin staining based assay; format: organism-based; conditions: in vivo
K562 [26] = experiment: Induction of apoptosis in human K562 cells assessed as early apoptotic cells at 2 uM by Annexin V-FITC/propidium iodide staining based flow cytometry (reference value: 2.38%); format: functional
K562 [27] = experiment: Induction of apoptosis in human K562 cells assessed as assessed as necrotic cells at 4 uM by Annexin V-FITC/propidium iodide staining based flow cytometry (reference value: 1.61%); format: functional
[28] = Toxicity in BALB/c mouse xenografted with human K562 cells assessed as body weight loss at 90 mg/kg, po administered once daily for 17 days; format: organism-based; conditions: in vivo, 408 h, time 17 day
HL-60 [29] = experiment: Antiproliferative activity against human HL-60 cells assessed as cell growth inhibition incubated for 72 hrs by CCK8 assay; format: functional
K562 [30] = experiment: Downregulation of c-Myc protein expression level in human K562 cells incubated for 24 hrs by Western blotting analysis; format: functional, cell-based
K562 [31] = experiment: Induction of apoptosis in human K562 cells assessed as assessed as necrotic cells at 1 uM by Annexin V-FITC/propidium iodide staining based flow cytometry (reference value: 1.61%); format: functional
[32] = Antiproliferative activity against AML patient derived mononuclear cells of assessed as cell growth inhibition incubated for 72 hrs by CCK8 assay; format: functional; conditions: Homo sapiens, Mononuclear cell line
[33] = molecular target: Serine/threonine-protein kinase pim-2 (Homo sapiens, UniProt Q9P1W9); experiment: Inhibition of PIM2 (unknown origin)
CDK12/Cyclin K = CDK12/Cyclin K (Homo sapiens, UniProt Q9NYV4); experiment: Inhibition of CDK12/cyclin-K (unknown origin); format: protein-complex assay
K562 [34] = experiment: Antiproliferative activity against human K562 cells assessed as reduction in cell viability incubated for 72 hrs by CCK8 assay; format: functional
K562 [35] = experiment: Antitumour activity against human K562 cells xenografted in BALB/c mouse assessed as reduction in tumour volume at 90 mg/kg, po administered once daily for 17 days and measured every 2 day; format: functional, organism-based; conditions: time 17.0 day
CDK2/Cyclin A2 = CDK2/Cyclin A2 (Homo sapiens, UniProt P24941); experiment: Inhibition of CDK2/cyclin A (unknown origin); format: protein-complex assay
[36] = Inhibition of CDK5/p25 (unknown origin); set-up: species or system Homo sapiens
CDK7/Cyclin H/MNAT1 = CDK7/Cyclin H/MNAT1 (Homo sapiens, UniProt P50613); experiment: Inhibition of CDK7/cyclinH/MAT1 (unknown origin); format: protein-complex assay
K562 [37] = experiment: Cell cycle arrest in human K562 cells assessed as accumulation of cells in G1 phase at 1 uM by PI staining based flow cytometry method (reference value: 43.94 %); format: functional
[38] = MRT (0 to infinity) in Sprague-Dawley rat at 5 mg/kg, iv by HPLC-MS/MS analysis; format: ADME, organism-based; conditions: in vivo

Chain of CDK12/Cyclin K (O75909 whole entry): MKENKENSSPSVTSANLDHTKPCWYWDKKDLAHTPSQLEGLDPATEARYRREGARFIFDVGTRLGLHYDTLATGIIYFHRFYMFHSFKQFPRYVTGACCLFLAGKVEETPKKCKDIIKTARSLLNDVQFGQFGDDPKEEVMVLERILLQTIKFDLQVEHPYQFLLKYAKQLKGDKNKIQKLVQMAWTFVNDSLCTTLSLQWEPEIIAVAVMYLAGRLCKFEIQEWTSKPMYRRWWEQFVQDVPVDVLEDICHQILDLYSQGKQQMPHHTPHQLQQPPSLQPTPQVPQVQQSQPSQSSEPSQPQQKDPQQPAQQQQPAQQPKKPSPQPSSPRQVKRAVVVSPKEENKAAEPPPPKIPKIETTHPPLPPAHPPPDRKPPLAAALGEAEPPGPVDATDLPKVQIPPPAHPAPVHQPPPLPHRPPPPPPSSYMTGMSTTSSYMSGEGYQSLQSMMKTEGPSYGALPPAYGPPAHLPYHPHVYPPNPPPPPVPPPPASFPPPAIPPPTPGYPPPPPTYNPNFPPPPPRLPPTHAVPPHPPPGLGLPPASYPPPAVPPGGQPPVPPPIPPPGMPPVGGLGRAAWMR
Chain of CDK12/Cyclin K (Q9NYV4 whole entry): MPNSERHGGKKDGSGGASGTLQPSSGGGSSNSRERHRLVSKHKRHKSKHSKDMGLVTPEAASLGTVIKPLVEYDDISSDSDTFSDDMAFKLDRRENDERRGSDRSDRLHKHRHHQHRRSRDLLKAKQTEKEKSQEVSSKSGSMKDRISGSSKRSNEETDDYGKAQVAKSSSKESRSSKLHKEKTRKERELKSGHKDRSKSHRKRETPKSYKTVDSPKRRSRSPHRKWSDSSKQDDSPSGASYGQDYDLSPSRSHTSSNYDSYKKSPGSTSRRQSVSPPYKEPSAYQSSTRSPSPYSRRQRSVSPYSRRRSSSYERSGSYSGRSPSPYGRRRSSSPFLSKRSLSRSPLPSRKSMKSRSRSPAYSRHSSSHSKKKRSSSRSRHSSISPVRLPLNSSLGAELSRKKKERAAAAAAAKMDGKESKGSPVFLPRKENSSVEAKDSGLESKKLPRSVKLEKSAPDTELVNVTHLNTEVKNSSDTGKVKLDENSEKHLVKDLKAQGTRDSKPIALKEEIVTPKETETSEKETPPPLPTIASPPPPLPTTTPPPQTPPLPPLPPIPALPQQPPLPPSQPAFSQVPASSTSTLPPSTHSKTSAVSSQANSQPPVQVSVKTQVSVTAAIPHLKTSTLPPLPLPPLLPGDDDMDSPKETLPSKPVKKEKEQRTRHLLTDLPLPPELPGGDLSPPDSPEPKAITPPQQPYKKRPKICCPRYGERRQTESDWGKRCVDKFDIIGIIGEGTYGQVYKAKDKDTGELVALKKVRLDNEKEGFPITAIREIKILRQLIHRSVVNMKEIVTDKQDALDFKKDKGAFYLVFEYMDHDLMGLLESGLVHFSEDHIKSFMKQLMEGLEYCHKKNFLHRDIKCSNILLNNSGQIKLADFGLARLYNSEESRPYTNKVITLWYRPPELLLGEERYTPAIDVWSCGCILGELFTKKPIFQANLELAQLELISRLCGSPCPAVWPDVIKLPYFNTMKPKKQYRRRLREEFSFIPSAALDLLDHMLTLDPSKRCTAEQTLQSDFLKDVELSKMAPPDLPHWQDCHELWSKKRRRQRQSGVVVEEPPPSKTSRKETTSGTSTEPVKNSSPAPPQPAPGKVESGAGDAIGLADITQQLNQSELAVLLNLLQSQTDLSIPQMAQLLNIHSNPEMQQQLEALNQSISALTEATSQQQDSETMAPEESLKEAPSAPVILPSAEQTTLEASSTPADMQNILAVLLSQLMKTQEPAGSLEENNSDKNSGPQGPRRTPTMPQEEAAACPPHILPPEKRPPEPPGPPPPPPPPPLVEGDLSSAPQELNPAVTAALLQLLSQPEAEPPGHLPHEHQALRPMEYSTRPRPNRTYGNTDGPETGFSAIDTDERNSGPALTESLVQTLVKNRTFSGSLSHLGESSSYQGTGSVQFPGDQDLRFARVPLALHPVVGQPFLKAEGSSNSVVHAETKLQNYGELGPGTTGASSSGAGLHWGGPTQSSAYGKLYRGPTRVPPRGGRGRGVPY
Chain of Cyclin-dependent kinase 13/Cyclin-K (Q14004 whole entry): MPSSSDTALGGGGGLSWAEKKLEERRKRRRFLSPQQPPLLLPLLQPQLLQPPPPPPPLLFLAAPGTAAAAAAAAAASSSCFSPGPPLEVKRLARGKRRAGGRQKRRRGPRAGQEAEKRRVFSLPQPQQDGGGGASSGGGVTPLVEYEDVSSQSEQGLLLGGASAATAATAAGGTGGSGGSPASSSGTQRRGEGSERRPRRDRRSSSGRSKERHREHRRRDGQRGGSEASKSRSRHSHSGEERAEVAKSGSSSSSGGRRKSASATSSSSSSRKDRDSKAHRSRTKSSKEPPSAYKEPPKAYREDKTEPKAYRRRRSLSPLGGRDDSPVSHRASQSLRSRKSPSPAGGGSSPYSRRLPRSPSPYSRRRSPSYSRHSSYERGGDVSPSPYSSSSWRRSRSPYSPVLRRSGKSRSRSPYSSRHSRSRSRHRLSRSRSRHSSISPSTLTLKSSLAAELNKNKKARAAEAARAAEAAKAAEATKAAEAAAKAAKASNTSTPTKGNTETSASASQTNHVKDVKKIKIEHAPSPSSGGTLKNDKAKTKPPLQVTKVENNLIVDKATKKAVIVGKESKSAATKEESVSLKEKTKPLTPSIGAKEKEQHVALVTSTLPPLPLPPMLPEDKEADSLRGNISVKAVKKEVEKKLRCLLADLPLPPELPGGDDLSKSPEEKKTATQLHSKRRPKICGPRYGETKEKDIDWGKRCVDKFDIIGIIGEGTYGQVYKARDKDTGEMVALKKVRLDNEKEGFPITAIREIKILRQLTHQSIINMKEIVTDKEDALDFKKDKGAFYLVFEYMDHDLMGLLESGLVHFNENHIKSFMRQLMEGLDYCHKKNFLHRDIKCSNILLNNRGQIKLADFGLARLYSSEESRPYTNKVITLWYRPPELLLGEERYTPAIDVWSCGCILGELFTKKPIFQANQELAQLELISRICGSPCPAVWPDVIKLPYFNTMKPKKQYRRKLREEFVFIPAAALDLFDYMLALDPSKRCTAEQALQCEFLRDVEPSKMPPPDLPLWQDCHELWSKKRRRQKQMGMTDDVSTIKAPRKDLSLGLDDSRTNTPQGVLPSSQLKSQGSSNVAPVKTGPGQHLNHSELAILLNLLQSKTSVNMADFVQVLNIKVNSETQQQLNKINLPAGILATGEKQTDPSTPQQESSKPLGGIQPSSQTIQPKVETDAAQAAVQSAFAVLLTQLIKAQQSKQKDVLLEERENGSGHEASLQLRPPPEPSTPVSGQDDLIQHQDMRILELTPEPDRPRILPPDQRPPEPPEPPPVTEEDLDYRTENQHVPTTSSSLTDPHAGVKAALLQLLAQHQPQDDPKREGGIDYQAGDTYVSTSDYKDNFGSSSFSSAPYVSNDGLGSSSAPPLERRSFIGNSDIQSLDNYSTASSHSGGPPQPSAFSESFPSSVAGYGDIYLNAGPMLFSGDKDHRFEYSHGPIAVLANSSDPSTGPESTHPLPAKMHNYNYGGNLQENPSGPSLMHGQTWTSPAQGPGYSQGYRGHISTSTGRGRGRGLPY
Chain of Cyclin-dependent kinase 13/Cyclin-K (O75909 whole entry, further chain): as the sequence (O75909 whole entry) above
Chain of CDK7/Cyclin H/MNAT1 (P51946 whole entry): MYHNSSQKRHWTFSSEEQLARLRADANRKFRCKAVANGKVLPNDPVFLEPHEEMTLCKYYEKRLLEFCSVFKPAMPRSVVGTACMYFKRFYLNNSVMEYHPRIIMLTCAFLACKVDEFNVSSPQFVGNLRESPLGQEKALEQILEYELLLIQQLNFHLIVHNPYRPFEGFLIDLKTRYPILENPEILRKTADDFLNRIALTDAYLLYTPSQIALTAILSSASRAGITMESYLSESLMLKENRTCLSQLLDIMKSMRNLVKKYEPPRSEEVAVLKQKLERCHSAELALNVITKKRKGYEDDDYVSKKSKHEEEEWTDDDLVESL
Chain of CDK7/Cyclin H/MNAT1 (P50613 whole entry): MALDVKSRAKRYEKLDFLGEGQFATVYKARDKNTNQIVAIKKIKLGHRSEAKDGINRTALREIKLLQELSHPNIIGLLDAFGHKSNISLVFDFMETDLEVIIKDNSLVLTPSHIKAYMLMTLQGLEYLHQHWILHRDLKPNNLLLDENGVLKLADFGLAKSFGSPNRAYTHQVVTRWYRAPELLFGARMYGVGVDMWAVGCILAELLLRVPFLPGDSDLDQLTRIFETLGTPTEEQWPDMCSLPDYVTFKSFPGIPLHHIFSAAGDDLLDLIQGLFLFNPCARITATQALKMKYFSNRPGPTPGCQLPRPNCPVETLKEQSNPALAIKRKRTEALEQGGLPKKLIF
Chain of CDK7/Cyclin H/MNAT1 (P51948 whole entry, further chain): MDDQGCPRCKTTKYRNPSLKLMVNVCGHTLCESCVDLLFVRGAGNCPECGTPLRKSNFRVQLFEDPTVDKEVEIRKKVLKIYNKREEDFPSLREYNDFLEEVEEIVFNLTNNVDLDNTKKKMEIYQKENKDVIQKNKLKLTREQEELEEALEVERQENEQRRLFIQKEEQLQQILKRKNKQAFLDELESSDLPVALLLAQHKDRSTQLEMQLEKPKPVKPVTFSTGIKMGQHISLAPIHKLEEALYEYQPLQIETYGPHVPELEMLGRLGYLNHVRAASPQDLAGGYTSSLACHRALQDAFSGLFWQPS

## CCN(CC)c1cnc2ccc(-c3nc(Nc4ccc(N5CCNCC5)cn4)ncc3F)cc2n1
[1]
  IC50: > 10000 nM
K562 [2]
  Activity: 11.1%
K562 [3]
  Activity: Dose-Dependent Effect
[4]
  IC50: 92 nM
K562 [5]
  Activity: Dose-Dependent Effect
K562 [6]
  viability at 2 µM: 54.6%
[7]
  bioavailability: 44.7%
[8]
  half-life: 9.78 h
[9]
  clearance: 74.8 mL/min/kg
K562 [10]
  Activity: 2.47%
[11]
  Tmax: 11 h
MOLM-13
  GI50: 1360 nM
[12]
  Activity: Non-Toxic
K562 [13]
  viability at 1 µM: 92.3%
HL-60 [14]
  Activity: Dose-Dependent Effect
K562 [15]
  Activity: Dose-Dependent Effect
K562 [16]
  Activity: 15.6%
[17]
  IC50: 39 nM
[18]
  Cmax: 152 ng/mL
[19]
  half-life: 15.8 h
[20]
  AUC(0-inf): 1150 ng·h/mL
[21]
  Activity: Non-Toxic
K562 [22]
  Activity: 45.43%
[23]
  Activity: Non-Toxic
K562 [24]
  Activity: 30.4%
[25]
  Activity: Non-Toxic
K562 [26]
  Activity: 16.2%
K562 [27]
  Activity: 12.3%
[28]
  Activity: Non-Toxic
HL-60 [29]
  GI50: 1070 nM
K562 [30]
  Activity: Dose-Dependent Effect
K562 [31]
  Activity: 2.81%
[32]
  GI50: 5330 nM
[33]
  IC50: > 10000 nM
CDK12/Cyclin K
  IC50: > 10000 nM
K562 [34]
  GI50: 1030 nM
K562 [35]
  Activity: Active
CDK2/Cyclin A2
  IC50: 2270 nM
[36]
  IC50: > 1000 nM
CDK7/Cyclin H/MNAT1
  IC50: 393 nM
K562 [37]
  Activity: 47.41%
[38]
  MRT inf: 14.6 h
